In assay [1] the test system is mouse model of BLM-induced lung injury. Put plainly: Serum ALP and LDH levels. It counts as in vivo. Particulars: mice. From the text:
Alkaline phosphatase (ALP) level and lactate dehydrogenase (LDH) level. An automatic blood indicator analyzer and related kits (alkaline phosphatase assay kit and lactate dehydrogenase assay kit) were used to measure related indicators.
Serum lactate dehydrogenase (LDH) and alkaline phosphatase (ALP) are important markers of inflammatory response of lung injury.

The test system of a further assay is ERK1/2, Akt and p38. Put plainly: Phosphorylation level of downstream mediators of TGF-β (Western Blot). It counts as cell-based, human. The following applies: MRC-5, TGF-β1 treatment. As for the experimental part:
1) Preparation of cell protein samples: the cell culture liquid was discarded, wash was performed once with PBS, and samples were collected by adding 1×SDS-Loading. after the samples were collected, they were placed in a metal bath at 100° C., and the samples were boiled for 10 minutes, and then the samples were stored at 4° C. for waiting for subsequent test.
2) Gel preparation and sample loading: according to the molecular weight of the detected protein, different concentrations of separation gel were selected. after filling the 1× electrophoresis buffer, an equal volume of protein sample 4 μl and protein marker were added on the far left to right in sequence. […]
8) Secondary antibodies: the film with the primary antibodies was rewarmed and incubated for about half an hour, and then the primary antibodies were recovered and the film was washed quickly with TBST solution 3 times, 10 minutes each time. […] The dilution ratio of the secondary antibody dedicated for DDR2 was 1:5000; The dilution ratio for the rest of the secondary antibodies were 1:8000, ready for use. […]
In addition, the phosphorylation level of the main downstream mediators of TGF-β was analyzed by Western Blot. […]
(In general: Immunoblotting shows a protein as a band on a membrane.)

Another assay deals with RET (Homo sapiens (Human), UniProt P07949). Put plainly: Enzyme selectivity test (ELISA), RET. The format is biochemical. How it is done:
1) Enzyme reaction substrate Poly(Glu, Tyr) 4:1 was diluted to 20 μg/mL with potassium-free PBS (10 mM sodium phosphate buffer, 150 mM NaCl, pH 7.2-7.4), and the microtiter plate was coated with 125 μL/well and placed at 37° C. for 12-16 hours of reaction. The liquid in the well was discard. The plate was washed three times with T-PBS (potassium-free PBS containing 0.1% Tween-20, 200 μL/well), 5 minutes each time. The ELISA plate was dried in an oven at 37° C. for 1 to 2 hours.
2) Reaction buffer (50 mM HEPES pH 7.4, 50 mM MgCl2, 0.5 mM MnCl2, 0.2 mM Na3VO4, 1 mM DTT) diluted ATP solution (49 μL) was added to each well, 1 μL of the compound to be tested was added to each well, and then 50 μL of DDR2 kinase domain recombinant protein diluted in the reaction buffer was added to start the reaction. Two control wells without ATP were set in each experiment. The plate placed on a shaker (100 rpm) at 37° C. for 1 hour of reaction. The liquid in the well was discarded and the plate was washed three times with T-PBS.
3) Antibody PY99 dilution solution (the antibody was diluted 1:500 with T-PBS containing BSA 5 mg/mL) was added at 100 μL/well, and shaken on a shaker at 37° C. for 0.5 hour of reaction. The liquid in the well was discarded and the plate was washed three times with T-PBS.
4) Horseradish peroxidase labeled goat anti-murine secondary antibody dilution solution (the antibody is diluted 1:2000 with T-PBS containing BSA 5 mg/ml) was added at 100 μL/well, and shaken on a shaker at 37° C. for 0.5 hour of reaction. The liquid in the well was discarded and the plate was washed three times with T-PBS.
5) 2 mg/ml of OPD color developing solution [diluted with 0.1 M citric acid-sodium citrate buffer (pH=5.4) containing 0.03% H2O2] was added at 100 μL/well and reacted for 1 to 10 minutes at 25° C. in the dark.
6) 2M H2SO4 was added at 50 μL/well to stop the reaction, and a tunable wavelength microplate reader VERSAmax was used for reading at a wavelength of 490 nm.
The IC50 value was obtained by four-parameter regression using the software that came with the microplate reader. […]
For orientation: In an ELISA, binding on a coated surface is turned into a signal by an enzyme label.

Sequence of RET (P07949 29-1114, species assumed): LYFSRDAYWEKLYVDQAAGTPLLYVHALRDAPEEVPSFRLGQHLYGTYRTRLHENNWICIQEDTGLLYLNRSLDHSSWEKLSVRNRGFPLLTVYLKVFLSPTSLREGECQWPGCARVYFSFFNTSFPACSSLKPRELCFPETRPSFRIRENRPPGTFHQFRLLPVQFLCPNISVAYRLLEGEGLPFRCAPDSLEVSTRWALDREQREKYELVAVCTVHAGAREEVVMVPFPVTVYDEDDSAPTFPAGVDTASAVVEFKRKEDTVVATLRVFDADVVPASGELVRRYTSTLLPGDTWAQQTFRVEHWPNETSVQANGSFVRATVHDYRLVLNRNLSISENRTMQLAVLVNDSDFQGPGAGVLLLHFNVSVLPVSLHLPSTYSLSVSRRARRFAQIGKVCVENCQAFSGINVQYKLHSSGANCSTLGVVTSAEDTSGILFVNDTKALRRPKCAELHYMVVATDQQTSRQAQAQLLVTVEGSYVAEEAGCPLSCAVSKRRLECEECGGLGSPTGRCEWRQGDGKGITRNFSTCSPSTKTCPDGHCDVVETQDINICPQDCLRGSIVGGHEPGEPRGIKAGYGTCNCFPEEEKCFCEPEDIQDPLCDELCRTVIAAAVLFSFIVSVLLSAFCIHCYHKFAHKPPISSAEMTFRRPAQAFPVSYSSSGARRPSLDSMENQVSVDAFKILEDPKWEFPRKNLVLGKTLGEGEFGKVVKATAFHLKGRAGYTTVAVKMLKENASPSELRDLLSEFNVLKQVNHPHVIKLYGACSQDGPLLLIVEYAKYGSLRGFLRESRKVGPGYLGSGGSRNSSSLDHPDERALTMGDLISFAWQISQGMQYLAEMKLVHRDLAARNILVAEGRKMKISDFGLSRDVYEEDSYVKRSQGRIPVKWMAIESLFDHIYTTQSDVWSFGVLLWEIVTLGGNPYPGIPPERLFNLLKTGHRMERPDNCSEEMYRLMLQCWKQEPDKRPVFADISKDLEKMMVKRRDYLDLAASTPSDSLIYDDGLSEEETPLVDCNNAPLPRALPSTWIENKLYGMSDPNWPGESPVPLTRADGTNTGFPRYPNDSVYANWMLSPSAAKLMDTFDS

Turning to `O=C(Nc1cccc(C(F)(F)F)c1)c1ccc(C2CC2)c(-c2ccc3nc(Nc4cnn(C5CC5)c4)ncc3c2)c1` [Compound S15, 4-cyclopropyl-3-(2-((1-cyclopropyl-1H-pyrazol-4-yl)amino)quinazolin-6-yl)-N-(3-(trifluoromethyl)phenyl)benzamide], the ALP serum level result in assay [1] is “inhibit the level of ALP more effectively than nintedanib”. Besides, the LDH serum level entry in assay [1] (90 mg/kg high dose group) is given as “effectively inhibit serum LDH level”. In the assay on ERK1/2, Akt and p38, the “phosphorylation level of downstream ERK1/2, Akt and p38” value was “significantly inhibit the phosphorylation level of downstream ERK1/2, Akt and p38”. The IC50 (as a rule, the point on the concentration scale where inhibition reaches its midpoint) against RET is greater than 1000 nM.

Values taken from patent US11655239B2 (SHANGHAI INSTITUTE OF MATERIAL MEDICA, CHINESE ACADEMY OF …, priority 2019, dated 2023).
